Data published in patent US10570184B2, “GLP-1/glucagon receptor co-agonists for medical use” (Novo Nordisk A/S, priority 2014, dated 2020).
Starred links: 1 amine or outer side, 2 acyl side, 3 side chain; linkers in the order of their positions; H or OH if unused. Non-standard residues stand in square brackets, D forms with d. Residues, ends and D or L forms follow the SMILES beside them. Groups on a side chain read outwards from the residue. *: point of attachment. C18 diacid = O=C(O)CCCCCCCCCCCCCCCCC(=O)*; γGlu = O=C(O)[C@H](CCC(=O)[*:2])N[*:1]; Ac4c = NC1(C(=O)O)CCC1; AEEA = NCCOCCOCC(=O)O; Aib = CC(C)(N)C(=O)O

Biological target: T1, human GLP-1 receptor (Homo sapiens, UniProt P43220)
T1 construct: expressed in transfected cells; host or cells: membranes of BHK cells (parent BHKTS13), clone FCW467-12A
Experiment: Assay (II)(a) GLP-1 receptor binding, 125I-GLP-1 displacement SPA on BHK membranes
Conditions: without presence of serum albumin; read-out: GLP-1R IC50 (nM) [Assay (II)(a)]
In short: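 Membranes from BHK cells (clone FCW467-12A) stably expressing human GLP-1R were incubated with serially diluted compounds (8×10EE-13 to 8×10EE-7 M before addition) and [125I]-GLP-1-(7-36)NH2 with WGA SPA beads, 2 h at 30° C, pH 7.4. IC50 taken from displacement by non-linear regression. Run at ≤0.001% or 2.0% final serum albumin.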

T1 sequence (P43220 24-463): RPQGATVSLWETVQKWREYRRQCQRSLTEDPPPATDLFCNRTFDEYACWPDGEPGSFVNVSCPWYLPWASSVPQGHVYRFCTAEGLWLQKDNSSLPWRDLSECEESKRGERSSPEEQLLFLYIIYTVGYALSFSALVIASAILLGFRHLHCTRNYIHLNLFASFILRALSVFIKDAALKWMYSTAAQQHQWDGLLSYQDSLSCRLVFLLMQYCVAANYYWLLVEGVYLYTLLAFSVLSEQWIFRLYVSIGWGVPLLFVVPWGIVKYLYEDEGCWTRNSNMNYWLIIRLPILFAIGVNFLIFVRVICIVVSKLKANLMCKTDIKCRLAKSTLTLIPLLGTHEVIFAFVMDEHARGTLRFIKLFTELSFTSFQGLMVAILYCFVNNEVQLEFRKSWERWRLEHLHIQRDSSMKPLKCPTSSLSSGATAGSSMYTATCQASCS

**Q.** For `CC[C@H](C)[C@H](NC(=O)[C@H](CC(C)C)NC(=O)[C@H](Cc1c[nH]c2ccccc12)NC(=O)[C@H](CCCCNC(=O)COCCOCCNC(=O)COCCOCCNC(=O)CC[C@H](NC(=O)CC[C@H](NC(=O)CC[C@H](NC(=O)CCCCCCCCCCCCCCCCC(=O)O)C(=O)O)C(=O)O)C(=O)O)NC(=O)[C@@H](NC(=O)[C@H](Cc1ccccc1)NC(=O)[C@H](CCC(=O)O)NC(=O)[C@H](CCCNC(=N)N)NC(=O)[C@H](C)NC(=O)[C@H](CCCNC(=N)N)NC(=O)[C@H](CCCNC(=N)N)NC(=O)[C@H](C)NC(=O)[C@H](CC(=O)O)NC(=O)[C@H](CC(C)C)NC(=O)[C@H](Cc1ccc(O)cc1)NC(=O)[C@H](CCCCN)NC(=O)[C@H](CO)NC(=O)[C@H](Cc1ccc(O)cc1)NC(=O)[C@H](CC(=O)O)NC(=O)[C@H](CO)NC(=O)[C@@H](NC(=O)[C@H](Cc1ccccc1)NC(=O)[C@@H](NC(=O)CNC(=O)[C@H](CCC(N)=O)NC(=O)C(C)(C)NC(=O)[C@@H](N)Cc1c[nH]cn1)[C@@H](C)O)[C@@H](C)O)C(C)C)C(=O)N[C@@H](CO)C(=O)N[C@H](C(N)=O)[C@@H](C)O` [Chem. 4, N^ε24-[2-[2-[2-[[2-[2-[2-[[(4S)-4-carboxy-4-[[(4S)-4-carboxy-4-[[(4S)-4-carboxy-4-(17-carboxyheptadecanoylamino)butanoyl]amino]butanoyl]amino]butanoyl]amino]ethoxy]ethoxy]acetyl]amino]ethoxy]ethoxy]acetyl]-[Aib2,Ala16,Arg20,Glu21,Lys24,Ile27,Ser28]-Glucagon amide] (H-H[Aib]QGTFTSDYSKYLDARRAREFVK([AEEA-AEEA-γGlu-γGlu-γGlu-C18 diacid])WLIST-NH2; N-terminus assumed), which IC50 is on record?
**A.** 0.1 nM

**Q.** With `CC[C@H](C)[C@H](NC(=O)[C@H](CC(C)C)NC(=O)[C@H](Cc1c[nH]c2ccccc12)NC(=O)[C@H](CCC(N)=O)NC(=O)[C@@H](NC(=O)[C@H](Cc1ccccc1)NC(=O)[C@H](CC(=O)O)NC(=O)[C@H](CCC(N)=O)NC(=O)[C@H](C)NC(=O)[C@H](CCCNC(=N)N)NC(=O)[C@H](CCCNC(=N)N)NC(=O)[C@H](C)NC(=O)[C@H](CC(=O)O)NC(=O)[C@H](CC(C)C)NC(=O)[C@H](Cc1ccc(O)cc1)NC(=O)[C@H](CCCCN)NC(=O)[C@H](CO)NC(=O)[C@H](CC(C)C)NC(=O)[C@H](CC(=O)O)NC(=O)[C@H](CO)NC(=O)[C@@H](NC(=O)[C@H](Cc1ccccc1)NC(=O)[C@@H](NC(=O)CNC(=O)[C@H](CCC(N)=O)NC(=O)C(C)(C)NC(=O)[C@@H](N)Cc1c[nH]cn1)[C@@H](C)O)[C@@H](C)O)C(C)C)C(=O)N[C@@H](CCCCNC(=O)COCCOCCNC(=O)COCCOCCNC(=O)CC[C@H](NC(=O)CC[C@H](NC(=O)CC[C@H](NC(=O)CCCCCCCCCCCCCCCCC(=O)O)C(=O)O)C(=O)O)C(=O)O)C(=O)N[C@H](C(N)=O)[C@@H](C)O` [Chem. 7, N^ε28-[2-[2-[2-[[2-[2-[2-[[(4S)-4-carboxy-4-[[(4S)-4-carboxy-4-[[(4S)-4-carboxy-4-(17-carboxyheptadecanoylamino)butanoyl]amino]butanoyl]amino]butanoyl]amino]ethoxy]ethoxy]acetyl]amino]ethoxy]ethoxy]acetyl]-[Aib2,Leu10,Ala16,Ile27,Lys28]-Glucagon amide] (H-H[Aib]QGTFTSDLSKYLDARRAQDFVQWLIK([AEEA-AEEA-γGlu-γGlu-γGlu-C18 diacid])T-NH2; N-terminus assumed) as the compound, how does the IC50 read?
**A.** 0.3 nM

**Q.** `CC[C@H](C)[C@H](NC(=O)[C@H](CC(C)C)NC(=O)[C@H](Cc1c[nH]c2ccccc12)NC(=O)[C@H](CCC(N)=O)NC(=O)[C@@H](NC(=O)[C@H](Cc1ccccc1)NC(=O)[C@H](CCC(=O)O)NC(=O)[C@H](CCCNC(=N)N)NC(=O)[C@H](C)NC(=O)[C@H](CCCNC(=N)N)NC(=O)[C@H](CCCNC(=N)N)NC(=O)[C@H](CO)NC(=O)[C@H](CCC(=O)O)NC(=O)[C@H](CC(C)C)NC(=O)[C@H](Cc1ccc(O)cc1)NC(=O)[C@H](CCCNC(=N)N)NC(=O)[C@H](CO)NC(=O)[C@H](CC(C)C)NC(=O)[C@H](CC(=O)O)NC(=O)[C@H](CO)NC(=O)[C@@H](NC(=O)[C@H](Cc1ccccc1)NC(=O)[C@@H](NC(=O)CNC(=O)[C@H](CCC(N)=O)NC(=O)C1(NC(=O)[C@@H](N)Cc2c[nH]cn2)CCC1)[C@@H](C)O)[C@@H](C)O)C(C)C)C(=O)N[C@@H](CCCCNC(=O)CC[C@H](NC(=O)CC[C@H](NC(=O)COCCOCCNC(=O)COCCOCCNC(=O)CC[C@H](NC(=O)CC[C@H](NC(=O)CCCCCCCCCCCCCCCCC(=O)O)C(=O)O)C(=O)O)C(=O)O)C(=O)O)C(=O)N[C@H](C(N)=O)[C@@H](C)O` [Chem. 17, N^ε28-[(4S)-4-carboxy-4-[[(4S)-4-carboxy-4-[[2-[2 [2-[[2-[2-[2-[[(4S)-4-carboxy-4-[[(4S)-4-carboxy-4-(17-carboxyheptadecanoylamino)butanoyl]amino]butanoyl]amino]ethoxy]ethoxy]acetyl]amino]ethoxy]ethoxy]acetyl]amino]butanoyl]amino]butanoyl]-[Acb2,Leu10,Arg12,Glu15,Arg20,Glu21,Ile27,Lys28]-Glucagon amide] (H-H[Ac4c]QGTFTSDLSRYLESRRAREFVQWLIK([γGlu-γGlu-AEEA-AEEA-γGlu-γGlu-C18 diacid])T-NH2) was tested. Which IC50 did it give?
**A.** 0.1 nM

**Q.** How did the IC50 turn out when `CC[C@H](C)[C@H](NC(=O)[C@H](CC(C)C)NC(=O)[C@H](Cc1c[nH]c2ccccc12)NC(=O)[C@H](CCC(N)=O)NC(=O)[C@@H](NC(=O)[C@H](Cc1ccccc1)NC(=O)[C@H](CCC(=O)O)NC(=O)[C@H](CCCNC(=N)N)NC(=O)[C@H](C)NC(=O)[C@H](CCCNC(=N)N)NC(=O)[C@H](CCCNC(=N)N)NC(=O)[C@H](CO)NC(=O)[C@H](CCC(=O)O)NC(=O)[C@H](CC(C)C)NC(=O)[C@H](Cc1ccc(O)cc1)NC(=O)[C@H](CCCCN)NC(=O)[C@H](CO)NC(=O)[C@H](CC(C)C)NC(=O)[C@H](CC(=O)O)NC(=O)[C@H](CO)NC(=O)[C@@H](NC(=O)[C@H](Cc1ccccc1)NC(=O)[C@@H](NC(=O)CNC(=O)[C@H](CCC(N)=O)NC(=O)C1(NC(=O)[C@@H](N)Cc2c[nH]cn2)CCC1)[C@@H](C)O)[C@@H](C)O)C(C)C)C(=O)N[C@@H](CCCCNC(=O)COCCOCCNC(=O)COCCOCCNC(=O)CC[C@H](NC(=O)CC[C@H](NC(=O)CCCCCCCCCCCCCCCCC(=O)O)C(=O)O)C(=O)O)C(=O)N[C@H](C(N)=O)[C@@H](C)O` [Chem. 18, N^ε28-[2-[2-[2-[[2-[2-[2-[[(4S)-4-carboxy-4-[[(4S)-4-carboxy-4-(17-carboxyheptadecanoylamino)butanoyl]amino]butanoyl]amino]ethoxy]ethoxy]acetyl]amino]ethoxy]ethoxy]acetyl]-[Acb2,Leu10,Glu15,Arg20,Glu21,Ile27,Lys28]-Glucagon amide] (H-H[Ac4c]QGTFTSDLSKYLESRRAREFVQWLIK([AEEA-AEEA-γGlu-γGlu-C18 diacid])T-NH2) was run?
**A.** 0.1 nM

**Q.** Which IC50 does the source give for `CC[C@H](C)[C@H](NC(=O)[C@H](CC(C)C)NC(=O)[C@H](Cc1c[nH]c2ccccc12)NC(=O)[C@H](CCC(N)=O)NC(=O)[C@@H](NC(=O)[C@H](Cc1ccccc1)NC(=O)[C@H](CC(=O)O)NC(=O)[C@H](CCCNC(=N)N)NC(=O)[C@H](C)NC(=O)[C@H](CCCNC(=N)N)NC(=O)[C@H](CCCNC(=N)N)NC(=O)[C@H](C)NC(=O)[C@H](CC(=O)O)NC(=O)[C@H](CC(C)C)NC(=O)[C@H](Cc1ccc(O)cc1)NC(=O)[C@H](CCCCN)NC(=O)[C@H](CO)NC(=O)[C@H](CC(C)C)NC(=O)[C@H](CC(=O)O)NC(=O)[C@H](CO)NC(=O)[C@@H](NC(=O)[C@H](Cc1ccccc1)NC(=O)[C@@H](NC(=O)CNC(=O)[C@H](CCC(N)=O)NC(=O)C(C)(C)NC(=O)[C@@H](N)Cc1c[nH]cn1)[C@@H](C)O)[C@@H](C)O)C(C)C)C(=O)N[C@@H](CC(N)=O)C(=O)N[C@@H](CCCCNC(=O)CC[C@H](NC(=O)CC[C@H](NC(=O)COCCOCCNC(=O)COCCOCCNC(=O)CC[C@H](NC(=O)CCCCCCCCCCCCCCCCC(=O)O)C(=O)O)C(=O)O)C(=O)O)C(N)=O` [Chem. 20, N^ε29-[(4S)-4-carboxy-4-[[(4S)-4-carboxy-4-[[2-[2-[2-[[2-[2-[2-[[(4S)-4-carboxy-4-(17-carboxyheptadecanoylamino)butanoyl]amino]ethoxy]ethoxy]acetyl]amino]ethoxy]ethoxy]acetyl]amino]butanoyl]amino]butanoyl]-[Aib2,Leu10,Ala16,Arg20,Ile27,Lys29]-Glucagon amide] (H-H[Aib]QGTFTSDLSKYLDARRARDFVQWLINK([γGlu-γGlu-AEEA-AEEA-γGlu-C18 diacid])-NH2; N-terminus assumed) here?
**A.** 0.1 nM

**Q.** With `CC[C@H](C)[C@H](NC(=O)[C@H](CC(C)C)NC(=O)[C@H](Cc1c[nH]c2ccccc12)NC(=O)[C@H](CCC(N)=O)NC(=O)[C@@H](NC(=O)[C@H](Cc1ccccc1)NC(=O)[C@H](CCC(=O)O)NC(=O)[C@H](CCCNC(=N)N)NC(=O)[C@H](C)NC(=O)[C@H](CCCNC(=N)N)NC(=O)[C@H](CCCNC(=N)N)NC(=O)[C@H](C)NC(=O)[C@H](CC(=O)O)NC(=O)[C@H](CC(C)C)NC(=O)[C@H](Cc1ccc(O)cc1)NC(=O)[C@H](CCCCN)NC(=O)[C@H](CO)NC(=O)[C@H](CC(C)C)NC(=O)[C@H](CC(=O)O)NC(=O)[C@H](CO)NC(=O)[C@@H](NC(=O)[C@H](Cc1ccccc1)NC(=O)[C@@H](NC(=O)CNC(=O)[C@H](CCC(N)=O)NC(=O)C(C)(C)NC(=O)[C@@H](N)Cc1c[nH]cn1)[C@@H](C)O)[C@@H](C)O)C(C)C)C(=O)N[C@@H](CC(N)=O)C(=O)N[C@@H](CCCCNC(=O)CC[C@H](NC(=O)CC[C@H](NC(=O)COCCOCCNC(=O)COCCOCCNC(=O)CC[C@H](NC(=O)CCCCCCCCCCCCCCCCC(=O)O)C(=O)O)C(=O)O)C(=O)O)C(N)=O` [Chem. 21, N^ε29-[(4S)-4-carboxy-4-[[(4S)-4-carboxy-4-[[2-[2-[2-[[2-[2-[2-[[(4S)-4-carboxy-4-(17-carboxyheptadecanoylamino)butanoyl]amino]ethoxy]ethoxy]acetyl]amino]ethoxy]ethoxy]acetyl]amino]butanoyl]amino]butanoyl]-[Aib2,Leu10,Ala16,Arg20,Glu21,Ile27,Lys29]-Glucagon amide] (H-H[Aib]QGTFTSDLSKYLDARRAREFVQWLINK([γGlu-γGlu-AEEA-AEEA-γGlu-C18 diacid])-NH2; N-terminus assumed) as the compound, how does the IC50 read?
**A.** 0.1 nM
